According to PubChem BioAssay (NCI):
“And” between values parts separate entries of the source, which are not always exact repeats. Equal entries are not always repeated.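 Growth conditions: 96-well plates. Treatment: test compound, 48 hours, 5 concentrations. Analysis: linear interpolation between bracketing concentrations; unreached endpoints set to highest concentration. Abbreviation: GI50, concentration required for 50% inhibition of growth. TGI: total growth inhibition.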

What was measured:
Assay in all cases: inhibition of tumour cell growth, NCI panel, 48 h
[1] = test system: A498 renal
[2] = test system: CCRF-CEM leukemia
[3] = test system: COLO 205 colon
[4] = test system: M14 melanoma
[5] = test system: MDA-MB-231 breast
[6] = test system: NCI-H522 lung
[7] = test system: OVCAR-5 ovarian
[8] = test system: OVCAR-8 ovarian
[9] = test system: SK-MEL-28 melanoma
[10] = test system: T-47D breast

| Structure (SMILES) | GI50 [1] | TGI [1] | GI50 [2] | TGI [2] | GI50 [3] | TGI [3] | GI50 [4] | TGI [4] | GI50 [5] [µM] | TGI [5] | GI50 [6] | TGI [6] | GI50 [7] | TGI [7] | GI50 [8] | TGI [8] | GI50 [9] | TGI [9] | GI50 [10] | TGI [10] |
| --- | --- | --- | --- | --- | --- | --- | --- | --- | --- | --- | --- | --- | --- | --- | --- | --- | --- | --- | --- | --- |
| N/C(=N\OC(=O)c1ccccc1)C(C(=O)NOC(=O)c1ccccc1)C1CCCCC1 (configuration not stated) | 14.8 µM | 28.7 µM | 2.71 µM | 9.79 µM | 11.6 µM | 26.8 µM | 10.9 µM | 23 µM | 18.1 | 70.9 µM | 2.82 µM | 7.76 µM | 14.6 µM | 28.2 µM | 3.38 µM | 14.8 µM | 16.2 µM | 50.7 µM | 7.57 µM | 28.2 µM |
| Cc1cccc(NC(=O)c2sc3nc4c(cc3c2N)CCCC4)c1C | 0.232 µM | 0.981 µM | 0.375 µM | > 100 µM | 0.344 µM | 27.6 µM | 0.355 µM | > 100 µM | 1.6 | > 100 µM | 0.269 µM | > 100 µM | 1.79 µM | > 100 µM | 0.754 µM | > 100 µM | > 48.4 µM | > 100 µM | 0.505 µM | > 100 µM |
| C[n+]1cc2c3c(ccc2c2ccc4cc5c(cc4c21)OCO5)OCO3 | 1.54 µM | 3.12 µM | 0.217 µM | 1.15 µM | 0.255 µM | 0.778 µM | 0.412 µM | 1.6 µM | 0.63 | 1.98 µM | 0.3 µM | 1.41 µM | 1.16 µM | 2.42 µM | 0.326 µM | 1.4 µM | 1.22 µM | 2.48 µM | 1.42 µM | 3.13 µM |
| CC(C)n1c(/C=C/[C@@H](O)C[C@@H](O)CC(=O)O)c(-c2ccc(F)cc2)c2ccccc21 | 0.164 µM and 0.219 µM | 0.527 µM and 0.848 µM | 13.8 µM and 13.4 µM | > 100 µM | 4.44 µM and 6.2 µM | 15.3 µM and > 65.1 µM | 19.4 µM and 11.9 µM | > 100 µM | 0.219 | 0.535 µM | 0.995 µM and 0.999 µM | > 100 µM | 18.5 µM and 26.6 µM | > 100 µM | 1.32 µM and 0.842 µM | > 100 µM | 12.2 µM and 15.4 µM | 53.9 µM and > 86.3 µM | 14.2 µM and 13.8 µM | > 100 µM |
| Clc1ccc(COC(Cn2ccnc2)c2ccc(Cl)cc2Cl)cc1 (configuration not stated) | 1.23 µM | 8.22 µM and 27.8 µM and 24.2 µM | 3.22 µM | 14.1 µM and 23.7 µM and 21.1 µM | 1.84 µM | 3.97 µM and 24.6 µM and 22.5 µM | 2.92 µM | 10.2 µM and 29.8 µM and 26.2 µM | 1.04 | 8.48 µM and 26.9 µM and 26 µM | 0.282 µM | 2.43 µM and 18.5 µM and 22.8 µM | 4.24 µM | 16.8 µM and 24.4 µM and 28.1 µM | 1.7 µM | 10.1 µM and 28.7 µM and 32.8 µM | 4.66 µM | 16.6 µM and 34.6 µM and 30 µM | 2.26 µM | 8.76 µM and 23.4 µM and 19.9 µM |
| CSc1ccc(/C=C2\CNC/C(=C\c3ccc(SC)cc3)C2=O)cc1 | 35.2 µM and 33.2 µg/mL | 159 µM and 118 µg/mL | 29.1 µg/mL | > 371 µM and 78.8 µg/mL | 150 µg/mL | > 371 µM and 150 µg/mL |  | > 371 µM |  | 362 µM | 22.3 µg/mL | > 161 µM and 63.5 µg/mL | 150 µg/mL | > 371 µM and 150 µg/mL | 116 µg/mL | > 102 µM and 150 µg/mL | 150 µg/mL | > 371 µM and 150 µg/mL |  | > 371 µM |
| O=C(Nc1ccc(OC(F)(F)F)cc1)c1sccc1NCc1ccnc2ccccc12 | 3 µM | > 40.9 µM | 3.72 µM | > 100 µM | 3.74 µM | 13.8 µM | 2.74 µM | 30.6 µM | 1.98 | 15.5 µM | 3 µM | > 72 µM | 7.73 µM | > 100 µM | 4.18 µM | > 56.4 µM | 5.64 µM | > 100 µM | 2.48 µM | > 95.9 µM |
| CCOC(=O)c1c(NC(=O)c2ccc(C(C)C)cc2)sc2c(CN(C)C)c(O)ccc12 | 1.86 µM | 9.02 µM | 2.33 µM | 7.35 µM | 2.06 µM | 4.5 µM | 1.77 µM | 3.48 µM | 1.95 | 3.83 µM | 2.01 µM | 4.53 µM | 2.92 µM | 9.49 µM | 3.56 µM | 16.3 µM | 1.73 µM | 3.24 µM | 2.01 µM | 5.17 µM |
| Fc1cccc(COc2ccc(Nc3ncnc4sc(-c5ccco5)cc34)cc2Cl)c1 | > 25 µM | > 25 µM | > 25 µM | > 25 µM | > 25 µM | > 25 µM | > 25 µM | > 25 µM | > 25 | > 25 µM | > 25 µM | > 25 µM | > 25 µM | > 25 µM | > 25 µM | > 25 µM | > 25 µM | > 25 µM | > 14.5 µM | > 25 µM |
| CC1(C)O[C@H]2OC3CCC(=O)CC3(O)[C@H]2O1 (some centres not stated) |  | > 100 µM |  | > 100 µM |  | > 100 µM |  | > 100 µM |  | > 100 µM |  | > 100 µM |  | > 100 µM |  | > 100 µM |  | > 100 µM |  | > 100 µM |
| CC(C)(C)OC(=O)NCC(C#N)CNC(=O)OC(C)(C)C |  | > 100 µM |  | > 100 µM |  | > 100 µM |  | > 100 µM |  | > 100 µM |  | > 100 µM |  | > 100 µM |  | > 100 µM |  | > 100 µM |  | > 100 µM |
| Nc1cc2c3c(cccc3c1)NC2=O |  | > 100 µM |  | > 100 µM |  | > 100 µM |  | > 100 µM |  | > 100 µM |  | 74 µM |  | > 100 µM |  | > 100 µM |  | > 100 µM |  | > 100 µM |
